In patent US6638919B2, “Antiviral purine derivatives” (University College Cardiff Consultants Limited, priority 2001, dated 2003):
“Also recorded” adds a separate entry of the source. Read-outs that look alike come from different tables or passages of the source.

Legend:
[1] = test system: HIV-1; conditions: read-out: EC50/μM HIV-1 CEM; Table II, known data disclosed in PCT/GB96/00580; cited from earlier work
[2] = test system: HIV-2; conditions: Table II, known data disclosed in PCT/GB96/00580; read-out: EC50/μM HIV-2 CEM; cited from earlier work
[3] = test system: CEM cells; conditions: cited from earlier work
[4] = human, plasma
Protocol: (§5) Each compound was incubated in normal heparinised human plasma at 37° C. for 4 hours. […] Drug concentrations were then determined by LC/MS/MS analysis using standard methods.

[5] = Biological stability in heparinised human plasma
Protocol: as §5

[6] = Acid stability, dilute HCl pH1, simulated stomach conditions; type: physicochemical; conditions: 0.1N HCl pH1, 25° C.
Protocol: Compounds were tested for their stability towards acid-mediated hydrolytic decomposition employing a test designed to simulate stomach conditions. Each compound was incubated in dilute HCl of pH1 for 24 hours at 25° C. 0.3 mg of compound were added to 1 mL of 0.1N HCl at 25° C. HPLC was run immediately for time=0 and at intervals up to approximately 24 hours.

[7] = test system: HIV-2; experiment: Inhibition of HIV-2 giant cell formation in CEM cells; type: cell-based
Protocol: (§1) Then 100 μL of the infected cell suspension was transferred to microtiter plate wells and mixed with 100 μL of the appropriate dilutions of the test compounds.
HIV1 CEM: EC50 in μM for inhibition of […] in CEM cells.
HIV2 CEM: EC50 in μM for inhibition of HIV-2 in CEM cells

[8] = test system: HIV-1; experiment: Inhibition of HIV-1 giant cell formation in CEM cells; type: cell-based; conditions: mean increase in potency of phosphoramidate versus its parent nucleoside for HIV 1 and HIV 2
[9] = test system: HIV-1; experiment: as above; type: cell-based
Protocol: as §1
HIV 1 CEM: EC50 in μM for inhibition of HIV1 in CEM cells

[10] = test system: MSV; experiment: Inhibition of MSV; type: cell-based; conditions: Table III; inhibition of MSV; read-out: EC50 MSV
Protocol: EC50 MSV: EC50 μM for inhibition of MSV

[11] = test system: MSV; experiment: Minimum cytotoxic concentration in MSV assay; type: cell-based; parameters: unit not given here; conditions: Table III
From the text: MCC MSV: minimum cytotoxic concentration in MSV essay.

[12] = test system: CEM cells; experiment: Toxicity to mock-infected CEM cells (CC50); type: cell-based
Protocol: as §1
(§2) CC50 CEM: CC50 in μM for toxicity to CEM cells.
(§3) CC50 CEM: CC50 μM for toxicity to CEM cells

[13] = Solid type of salt forms; type: physicochemical
[14] = Solid state stability of salt forms; type: physicochemical; conditions: % of parent (AUC) after two weeks at 60° C.
From the text: (§4) The solubility and solution/solid state stability of three salt forms of (1S, 4R)-4-[2-amino-5(cyclopropylamino)-9(H)-purin-9-yl]-2-cyclopentene-1-methanol O-(phenyl ethoxy-L-alaninyl) phosphate

[15] = Solution stability of salt forms; type: physicochemical; conditions: % of parent (AUC) after 27 hr at room temperature
From the text: as §4

[16] = Toxicity to mock-infected CEM cells (CC50); type: cell-based; conditions: human; mock-infected CEM cells; Tables I and II; read-out: CC50/μM CEM
Protocol: as §1, §2, §3

[17] = heparinised human plasma, 37° C.
[18] = Table III, EC50 for inhibition of HIV-2 in CEM cells, read-out: HIV2 CBM

In the case of `CCOC(=O)[C@H](C)NP(=O)(OC[C@@H]1C=C[C@H](n2cc(C)c(=O)[nH]c2=O)O1)Oc1ccccc1` (stereo partly shown) [Compound 951, 2′, 3′-dideoxy-2′, 3′-didehydrothymidine 5′-(phenylexthoxyalaninyl) phosphoramidate], the EC50 [1] is listed as 0.1 µM, the EC50 [2] is listed as 0.07 µM and the CC50 [3] is listed as 5.5 µM.

For `COC(=O)C[C@H](NP(=O)(OC[C@@H]1C=C[C@H](n2cc(C)c(=O)[nH]c2=O)O1)Oc1ccccc1)C(=O)OC` (stereo partly shown) [Compound 1078, 2′, 3′-dideoxy-2′, 3′-didehydrothymidine 5′-(phenyldimethoxyaspartyl) phosphoramidate], the EC50 [1] is listed as 0.55 µM, the EC50 [2] is listed as 0.65 µM and the CC50 [3] is listed as 209 µM.

In the case of `COC(=O)C(C)NP(=O)(OC[C@@H]1CC[C@H](n2cnc3c(N)ncnc32)O1)Oc1ccccc1` (stereo partly shown) [Compound 1093, 2′, 3′-dideoxy adenosine 5′-(phenylmethoxyalaninyl) phosphoramidate], the EC50 [1] is given as 0.016 µM, the “% Remaining at 4 hours” value [4] is given as 50% and the “Half-life” value [5, 17] is given as 4.2 h. For the same compound, the EC50 [2] was 0.035 µM, the CC50 ([3]; read-out: CC50/μM CEM, Table II, known data disclosed in PCT/GB96/00580) was 2.57 µM and the “time to degradation in acid” value [6] was “less than 13 hours”. The “Compound left (%)” value ([6]; time 0 hr) was 100% and the “Compound left (%)” value ([6]; time 13 hr) was 0%.

With `COC(=O)[C@H](C)NP(=O)(OC[C@@H]1C=C[C@H](n2cnc3c(NC4CC4)nc(N)nc32)C1)Oc1ccccc1` (stereo partly drawn) [Compound 1490, (1S,4R)-4-(2-amino-6-cyclopropylamino-9H-purin-9-yl)-2-cyclopentene-1-methanol O-[phenyl-(methoxy-L-alaninyl)]-phosphate] the EC50 ([7]; CEM cells, giant cell formation after 4 days, Tables I and II, read-out: EC50/μM HIV-2 CEM) was 0.09 µM, the EC50 [7, 18] was 0.05 µM and the “Fold Improvement” value [8] was 30.2. For the same compound, the EC50 ([9]; CEM cells, giant cell formation after 4 days, Tables I and II, read-out: EC50/μM HIV-1 CEM) was 0.07 µM, the EC50 [10] was 1600 nM and the MCCMSV [11] was >4. It also gave a CC50 [12] of 13.1 µM.

For `CCOC(=O)[C@H](C)NP(=O)(OC[C@@H]1C=C[C@H](n2cnc3c(NC4CC4)nc(N)nc32)C1)Oc1ccccc1` (stereo partly drawn) [Compound 1587, (1S,4R)-4-(2-amino-6cyclopropylamino-9H-purin-9-yl)-2-cyclopentene-1-methaanol O-[phenyl-(ethoxy-L-alaninyl)]-phosphate], the EC50 [7, 18] was 0.06 µM, the “Solid Type” value [13] was “Amorphous; also recorded: Hygroscopic” and the “Solid State Stability (%)” value [14] was 93.7%. The EC50 ([9]; Table III, EC50 for inhibition of HIV1 in CEM cells, read-out: HIV1 CBM) was 0.07 µM, the “Stability (%) 0.1 N HCl” value [15] was 69.1% and the “Stability (%) HPMC/Tween” value [15] was 97.6%. The “Stability (%) PBS” value [15] was 98.5%, the “Half-life” value [5, 17] was 26 h and the “% Remaining at 4 hours” value ([5]; heparinised human plasma, 37° C., 4 hours) was 91%. For the same compound, the “stability advantage over each of compounds 1001 and 1093” value ([5]; human plasma, Table V data) was 6 fold, the CC50 ([12]; Table III, toxicity to CEM cells, read-out: CC50 CEN) was 12.1 µM and the “acid stability in words” value ([6]; after 22 hours) was “remained in tact”. The “Compound left (%)” value ([6]; time 0 hr) was 100% and the “Compound left (%)” value ([6]; time 22 hr) was 77%.

With `CCOC(=O)[C@H](C)NP(=O)(OC[C@@H]1C=C[C@H](n2cnc3c(NC4CC4)nc(N)nc32)C1)Oc1ccccc1.O=C(O)/C=C/C(=O)O` (stereo partly drawn) [Example 3, (1S,4R)-4-(2-Amino-6cyclopropylamino-9(H)-purin-9-yl)-2-cyclopentene-1-methanol O-(phenylethoxy-L-alaninyl) phosphate Fumarate Salt] the “Solid Type” value [13] was “crystals”, the “Solid State Stability (%)” value [14] was 97.1% and the “Stability (%) 0.1 N HCl” value [15] was 70.0%. The “Stability (%) HPMC/Tween” value [15] was 98.3% and the “Stability (%) PBS” value [15] was 98.5%.

In the case of `CCOC(=O)[C@H](C)NP(=O)(OC[C@@H]1C=C[C@H](n2cnc3c(NC4CC4)nc(N)nc32)C1)Oc1ccccc1.O=C(O)CCCC(=O)O` (stereo partly drawn) [Example 4, (1S,4R)-4-(2-Amino-6-cyclopropylamino-9(H)-purin-9-yl)-2-cyclopenten-1-methanol O-(phenylethoxy-L-alaninyl) phosphate Glutarate Salt], the “Solid Type” value [13] is reported as “crystals”, the “Solid State Stability (%)” value [14] is reported as 98.9% and the “Stability (%) 0.1 N HCl” value [15] is reported as 69.3%. The “Stability (%) HPMC/Tween” value [15] was 98.6% and the “Stability (%) PBS” value [15] was 99.9%.

For `COC(=O)C(C)NP(=O)(OCC1C=CC(n2cnc3c(=O)[nH]c(N)nc32)C1)Oc1ccccc1` [Example A, (1R, 4S)-9-14-(hydroxymethyl)-2-cyclopenten-2-yl] guanine-5′-[phenyl-(methoxy-L-alaninyl)]-phosphate, reference compound], the EC50 ([7]; Human immunodeficiency virus 2, CCRF-CEM, 96 h, CEM cells, giant cell formation after 4 days, Tables I and II, read-out: EC50/μM HIV-2 CEM) was 0.85 µM, the “Fold Improvement” value [8] was 1.9 and the EC50 ([9]; Human immunodeficiency virus 1, CCRF-CEM, 96 h, CEM cells, giant cell formation after 4 days, Tables I and II, read-out: EC50/μM HIV-1 CEM) was 1.3 µM. The CC50 [16] was 123 µM.
